Results: PubChem BioAssay AID1745844 (Carcinogenic Potency Database (CPDB), 2022)
The source made the active and inactive calls. The rule behind the calls is not given here.

Test system: rodent lifetime carcinogenesis bioassay, tumor incidence TD50
Assay: chronic cancer bioassays in animals – CPDB, compiled studies (AID 1745844)

## CCN(CC)C(=S)S[Se](SC(=S)N(CC)CC)(SC(=S)N(CC)CC)SC(=S)N(CC)CC
mouse, strain B6AKF1, females, oral dosing, site: any site (literature study), lesion: several types, types named in the paper, dosed 81 weeks, study length 81 weeks
  TD50: 10.5 mg/kg/day
mouse, strain B6AKF1, males, oral dosing, site: any site (literature study), lesion: several types, types named in the paper, dosed 81 weeks, study length 81 weeks
  TD50: 8.45 mg/kg/day
mouse, strain B6AKF1, males, oral dosing, site: liver, lesion: hepatoma, dosed 81 weeks, study length 81 weeks
  TD50: 10.2 mg/kg/day
mouse, strain B6AKF1, males, oral dosing, site: lung, lesion: adenoma, dosed 81 weeks, study length 81 weeks
  TD50: 18.4 mg/kg/day
mouse, strain B6C3F1, females, oral dosing, site: any site (literature study), lesion: several types, types named in the paper, dosed 81 weeks, study length 81 weeks
  TD50: 3.46 mg/kg/day
mouse, strain B6C3F1, females, oral dosing, site: liver, lesion: hepatoma, dosed 81 weeks, study length 81 weeks
  TD50: 7.76 mg/kg/day
mouse, strain B6C3F1, males, oral dosing, site: any site (literature study), lesion: several types, types named in the paper, dosed 81 weeks, study length 81 weeks
  TD50: 0.638 mg/kg/day
mouse, strain B6C3F1, males, oral dosing, site: liver, lesion: hepatoma, dosed 81 weeks, study length 81 weeks
  TD50: 1.49 mg/kg/day
mouse, strain B6C3F1, males, oral dosing, site: liver, lesion: several types, types named in the paper, dosed 81 weeks, study length 81 weeks
  TD50: 1.28 mg/kg/day

## CN(C)N=Nc1nc[nH]c1C(N)=O
mouse, strain Swiss, females, i.p., site: all sites, lesion: lymphosarcoma, dosed 26 weeks, study length 61 weeks
  TD50: 8 mg/kg/day
mouse, strain Swiss, females, i.p., site: any site (literature study), lesion: benign tumor, dosed 26 weeks, study length 61 weeks
  TD50: 7.03 mg/kg/day
mouse, strain Swiss, females, i.p., site: any site (literature study), lesion: malignant tumor, dosed 26 weeks, study length 61 weeks
  TD50: 0.807 mg/kg/day
mouse, strain Swiss, females, i.p., site: lung, lesion: several types, types named in the paper, dosed 26 weeks, study length 61 weeks
  TD50: 0.595 mg/kg/day
mouse, strain Swiss, females, i.p., site: spleen, lesion: hemangioendothelioma, dosed 26 weeks, study length 61 weeks
  TD50: 14.5 mg/kg/day
mouse, strain Swiss, females, i.p., site: uterus, lesion: adenocarcinoma, dosed 26 weeks, study length 61 weeks
  TD50: 3.2 mg/kg/day
mouse, strain Swiss, males, i.p., site: all sites, lesion: lymphatic leukemia, dosed 26 weeks, study length 78 weeks
  TD50: 13 mg/kg/day
mouse, strain Swiss, males, i.p., site: all sites, lesion: lymphosarcoma, dosed 26 weeks, study length 78 weeks
  TD50: 16.1 mg/kg/day
mouse, strain Swiss, males, i.p., site: any site (literature study), lesion: benign tumor, dosed 26 weeks, study length 78 weeks
  TD50: 10.6 mg/kg/day
mouse, strain Swiss, males, i.p., site: any site (literature study), lesion: malignant tumor, dosed 26 weeks, study length 78 weeks
  TD50: 1.54 mg/kg/day
mouse, strain Swiss, males, i.p., site: any site (literature study), lesion: several types, types named in the paper, dosed 26 weeks, study length 78 weeks
  TD50: 0.813 mg/kg/day
mouse, strain Swiss, males, i.p., site: liver, lesion: several types, types named in the paper, dosed 26 weeks, study length 78 weeks
  TD50: 98.8 mg/kg/day
mouse, strain Swiss, males, i.p., site: lung, lesion: several types, types named in the paper, dosed 26 weeks, study length 78 weeks
  TD50: 2.57 mg/kg/day
mouse, strain Swiss, males, i.p., site: spleen, lesion: several types, types named in the paper, dosed 26 weeks, study length 78 weeks
  TD50: 5.17 mg/kg/day
rat, strain Sprague-Dawley, females, in feed, site: mammary gland, lesion: adenofibroma, dosed 46 weeks, study length 60 weeks
  TD50: 0.71 mg/kg/day
rat, strain Sprague-Dawley, females, in feed, site: thymus gland, lesion: lymphosarcoma, dosed 46 weeks, study length 60 weeks
  TD50: 4.21 mg/kg/day
rat, strain Sprague-Dawley, females, in feed, site: uterus, lesion: leiomyosarcoma, dosed 46 weeks, study length 60 weeks
  TD50: 6.55 mg/kg/day

## Cc1ccc(N=Nc2c(O)c(S(=O)(=O)O)cc3cc(S(=O)(=O)O)ccc23)c(C)c1
mouse, strain DDY, females, in feed, site: liver, lesion: hepatocellular adenoma, dosed 81 weeks, study length 81 weeks
  TD50: 21500 mg/kg/day
mouse, strain DDY, females, in feed, site: liver, lesion: hepatocellular carcinoma, dosed 81 weeks, study length 81 weeks
  TD50: 784 mg/kg/day
mouse, strain DDY, males, in feed, site: liver, lesion: hepatocellular adenoma, dosed 81 weeks, study length 81 weeks
  TD50: 8790 mg/kg/day
mouse, strain DDY, males, in feed, site: liver, lesion: hepatocellular carcinoma, dosed 81 weeks, study length 81 weeks
  TD50: 659 mg/kg/day
rat, strain CFE, females, in feed, site: liver, lesion: nodular hyperplasia, dosed 104 weeks, study length 104 weeks
  TD50: 704 mg/kg/day
rat, strain CFE, males, in feed, site: liver, lesion: nodular hyperplasia, dosed 104 weeks, study length 104 weeks
  TD50: 2910 mg/kg/day
rat, strain Wistar albino, females, in feed, site: liver, lesion: hepatocellular carcinoma, dosed 52 weeks, study length 91 weeks
  TD50: 2620 mg/kg/day
rat, strain Wistar albino, females, in feed, site: liver, lesion: hepatocellular carcinoma, dosed 91 weeks, study length 91 weeks
  TD50: 3270 mg/kg/day
rat, strain Wistar albino, females, in feed, site: liver, lesion: several types, types named in the paper, dosed 52 weeks, study length 91 weeks
  TD50: 233 mg/kg/day
rat, strain Wistar albino, females, in feed, site: liver, lesion: several types, types named in the paper, dosed 91 weeks, study length 91 weeks
  carcinogen call: positive
rat, strain Wistar, males, in feed, site: liver, lesion: liver-cell adenoma, dosed 65 weeks, study length 65 weeks
  TD50: 1130 mg/kg/day

## C[C@@H]1C[C@]2(O[C@@H]2C)C(=O)O[C@@H]2CCN(C)C/C=C(/COC(=O)[C@]1(C)O)C2=O
rat, strain ACI, females, in drinking water, site: liver, lesion: hemangioendothelial sarcoma, dosed 68 weeks, study length 68 weeks
  TD50: 1.52 mg/kg/day
rat, strain ACI, females, in drinking water, site: liver, lesion: liver-cell adenoma, dosed 68 weeks, study length 68 weeks
  TD50: 4.13 mg/kg/day
rat, strain ACI, females, in drinking water, site: liver, lesion: several types, types named in the paper, dosed 68 weeks, study length 68 weeks
  TD50: 1.52 mg/kg/day
rat, strain ACI, males, in drinking water, site: liver, lesion: hemangioendothelial sarcoma, dosed 58 weeks, study length 58 weeks
  TD50: 4.78 mg/kg/day
rat, strain ACI, males, in drinking water, site: liver, lesion: liver-cell adenoma, dosed 58 weeks, study length 58 weeks
  TD50: 1.16 mg/kg/day
rat, strain ACI, males, in drinking water, site: liver, lesion: several types, types named in the paper, dosed 58 weeks, study length 58 weeks
  TD50: 0.662 mg/kg/day

## C[C@@H]1Cc2c(Cl)cc(C(=O)N[C@@H](Cc3ccccc3)C(=O)O)c(O)c2C(=O)O1
mouse, strain B6C3F1, females, in feed, site: liver, lesion: hepatocellular adenoma, dosed 104 weeks, study length 104 weeks
  TD50: 109 mg/kg/day
mouse, strain B6C3F1, females, in feed, site: liver, lesion: hepatocellular carcinoma, dosed 104 weeks, study length 104 weeks
  TD50: 34.8 mg/kg/day
mouse, strain B6C3F1, males, in feed, site: kidney, lesion: adenoma, dosed 104 weeks, study length 104 weeks
  TD50: 4.64 mg/kg/day
mouse, strain B6C3F1, males, in feed, site: kidney, lesion: carcinoma, dosed 104 weeks, study length 104 weeks
  TD50: 10.3 mg/kg/day
mouse, strain B6C3F1, males, in feed, site: kidney, lesion: several types, types named in the paper, dosed 104 weeks, study length 104 weeks
  TD50: 3.53 mg/kg/day
mouse, strain B6C3F1, males, in feed, site: liver, lesion: hepatocellular adenoma, dosed 104 weeks, study length 104 weeks
  TD50: 48.1 mg/kg/day
mouse, strain B6C3F1, males, in feed, site: liver, lesion: hepatocellular carcinoma, dosed 104 weeks, study length 104 weeks
  TD50: 58.7 mg/kg/day
rat, strain DA (from Hannover), females, by gavage, site: kidney, lesion: one or several types, types not named, dosed 110 weeks, study length 110 weeks
  carcinogen call: negative (inactive)
rat, strain DA (from Hannover), males, by gavage, site: kidney, lesion: adenocarcinoma, dosed 110 weeks, study length 110 weeks
  TD50: 0.368 mg/kg/day
rat, strain DA (from Hannover), males, by gavage, site: urinary bladder, lesion: transitional-cell carcinoma, dosed 110 weeks, study length 110 weeks
  TD50: 1.18 mg/kg/day
rat, strain Fischer 344, females, by gavage, site: kidney + mammary gland, lesion: tubule adenoma + tubule carcinoma + fibroadenoma, dosed 103 weeks, study length 104 weeks
  TD50: 0.386 mg/kg/day
rat, strain Fischer 344, females, by gavage, site: kidney, lesion: tubule adenoma + tubule carcinoma, dosed 103 weeks, study length 104 weeks
  TD50: 0.485 mg/kg/day
rat, strain Fischer 344, females, by gavage, site: kidney, lesion: tubule adenoma, dosed 103 weeks, study length 104 weeks
  TD50: 0.813 mg/kg/day
rat, strain Fischer 344, females, by gavage, site: kidney, lesion: tubule carcinoma, dosed 103 weeks, study length 104 weeks
  TD50: 1.31 mg/kg/day
rat, strain Fischer 344, females, by gavage, site: mammary gland, lesion: fibroadenoma, dosed 103 weeks, study length 104 weeks
  TD50: 0.55 mg/kg/day
rat, strain Fischer 344, males, by gavage, site: any site (literature study), lesion: several types, types named in the paper, dosed 103 weeks, study length 104 weeks
  TD50: 0.0863 mg/kg/day
rat, strain Fischer 344, males, by gavage, site: kidney, lesion: tubule adenoma + tubule carcinoma + tubule epithelium adenoma + tubular-cell carcinoma, bilateral, dosed 103 weeks, study length 104 weeks
  TD50: 0.0579 mg/kg/day
rat, strain Fischer 344, males, by gavage, site: kidney, lesion: tubule adenoma + tubule epithelium adenoma, dosed 103 weeks, study length 104 weeks
  TD50: 0.241 mg/kg/day
rat, strain Fischer 344, males, by gavage, site: kidney, lesion: tubule carcinoma + tubular-cell carcinoma, bilateral, dosed 103 weeks, study length 104 weeks
  TD50: 0.0756 mg/kg/day
rat, strain Fischer 344, males, by gavage, site: liver, lesion: hepatocellular adenoma + hepatocellular carcinoma + neoplastic nodule, dosed 103 weeks, study length 104 weeks
  TD50: 2.5 mg/kg/day
rat, strain Lewis, females, by gavage, site: kidney, lesion: adenocarcinoma, dosed 110 weeks, study length 110 weeks
  TD50: 2.56 mg/kg/day
rat, strain Lewis, males, by gavage, site: kidney, lesion: adenocarcinoma, dosed 110 weeks, study length 110 weeks
  TD50: 1.25 mg/kg/day
rat, strain Wistar, both sexes, by gavage, site: any site (literature study), lesion: one or several types, types not named, dosed 50 weeks, study length 110 weeks
  carcinogen call: negative (inactive)

## Cc1c(O)cc2c(c1C)OC(C)(CCCC(C)CCCC(C)CCCC(C)C)CC2 (stereo not given)
mouse, strain B6C3F1, males, in feed, site: liver, lesion: hepatocellular carcinoma, dosed 96 weeks, study length 96 weeks
  TD50: 5220 mg/kg/day
mouse, strain B6C3F1, males, in feed, site: liver, lesion: several types, types named in the paper, dosed 96 weeks, study length 96 weeks
  TD50: 3610 mg/kg/day

## CN[C@H]1CCc2cc(OC)c(OC)c(OC)c2-c2ccc(OC)c(=O)cc21
rat, strain BR 46, males, i.v., site: any site (literature study), lesion: benign tumor, dosed 52 weeks, study length 104 weeks
  TD50: 0.248 mg/kg/day (inactive)
rat, strain BR 46, males, i.v., site: any site (literature study), lesion: malignant tumor, dosed 52 weeks, study length 104 weeks
  TD50: 0.129 mg/kg/day (inactive)
rat, strain BR 46, males, i.v., site: any site (literature study), lesion: several types, types named in the paper, dosed 52 weeks, study length 104 weeks
  TD50: 0.0787 mg/kg/day (inactive)

## FC(F)OC(Cl)C(F)(F)F (stereo not given)
mouse, strain Swiss Webster, females, inhaled, site: liver, lesion: basophil adenoma, dosed 78 weeks, study length 81 weeks
  carcinogen call: negative (inactive)
mouse, strain Swiss Webster, females, inhaled, site: lung, lesion: alveolar-cell adenoma, dosed 78 weeks, study length 81 weeks
  TD50: 30000 mg/kg/day (inactive)
mouse, strain Swiss Webster, males, inhaled, site: liver, lesion: basophil adenoma, dosed 78 weeks, study length 81 weeks
  carcinogen call: negative (inactive)
mouse, strain Swiss Webster, males, inhaled, site: lung, lesion: alveolar-cell adenoma, dosed 78 weeks, study length 81 weeks
  carcinogen call: negative (inactive)

## CCCCNN
mouse, strain Swiss albino, females, in drinking water, site: lung, lesion: adenocarcinoma, dosed 119 weeks, study length 119 weeks
  TD50: 50.6 mg/kg/day
mouse, strain Swiss albino, females, in drinking water, site: lung, lesion: adenoma, dosed 119 weeks, study length 119 weeks
  TD50: 19.3 mg/kg/day
mouse, strain Swiss albino, females, in drinking water, site: lung, lesion: several types, types named in the paper, dosed 119 weeks, study length 119 weeks
  TD50: 18.4 mg/kg/day
mouse, strain Swiss albino, males, in drinking water, site: lung, lesion: adenoma, dosed 100 weeks, study length 100 weeks
  TD50: 8.4 mg/kg/day
mouse, strain Swiss albino, males, in drinking water, site: lung, lesion: several types, types named in the paper, dosed 100 weeks, study length 100 weeks
  TD50: 9.03 mg/kg/day
